Data as given in patent US20150141367A1, “MODULATION OF GROWTH OF BIFIDOBACTERIA USING A COMBINATION OF OLIGOSACCHARIDES FOUND IN HUMAN MILK” (NESTEC S.A., priority 2011, published 2015).

Tests used:
[1] = test system: Bifidobacterium Infantis ATCC 15697; assay: Growth of bifidobacteria in RCM without glucose, optical density at 595 nm over 30 hours; format: cell-based; conditions: for growth in wells containing the test ingredient vs control medium: abs 595 nm; for effect on the growth of Bifidobacterium infantis (summary statement): summary in description
Description: (§1) Reinforced Clostridia Medium (RCM) was used for cultivating the bifidobacteria. RCM without glucose was used as a control medium. RCM is a well-known medium for cultivating and enumerating anaerobes, which was first formulated by Hirsch and Grinstead, J. Dairy Res., 21:101 (1954). The test ingredients were 2′-fucosyllactose, 6′-sialyllactose and 3′-sialyllactose dissolved in the control medium at the following concentrations: 1 mg/ml 2′-fucosyllactose; 1 mg/ml 6′-sialyllactose; and, 2 mg/ml 3′-sialyllactose. The bifidobacteria were separately grown overnight anaerobically in RCM, and were then measured and diluted to an optical density of 0.1 as measured by absorbance spectroscopy at 595 nm, and were then further diluted ten-fold to make a working stock. For each test, 50 μl of working stock was added to each well of a 96 well plate containing either 200 μl of control medium (48 wells) or 200 μl test ingredient solution (48 wells). The plate was grown anaerobically for 30 hours and optical density was read at abs 595 nm every 15 minutes. The values for like wells were averaged and plotted over time (FIGS. 1, 3, and 5-7), and the area under the curve (AUC) was calculated over the 30-hour period (FIGS. 2 and 4).

[2] = test system: Bifidobacterium Breve ATCC 15700; assay: as above; format: cell-based
Description: as §1

Compound	growth in wells containing the test ingredient vs control medium ([1]; 1 mg/ml 6′-sialyllactose, after grown for 12 hours, FIG. 5)	effect on the growth of Bifidobacterium infantis (summary statement) [1]	growth in wells containing the test ingredient vs control medium ([1]; 2 mg/ml 3′-sialyllactose, after grown for 8 hours, FIG. 7)	growth in wells containing the test ingredient vs control medium ([2]; 2 mg/ml 3′-sialyllactose, after grown for 6 hours, abs 595 nm, FIG. 6)	effect on the growth of Bifidobacterium breve (summary statement) ([2]; summary in description)
CC(=O)N[C@H]1[C@H]([C@H](O)[C@H](O)CO)O[C@@](OC[C@H]2O[C@@H](O[C@H]3[C@H](O)[C@@H](O)[C@H](O)O[C@@H]3CO)[C@H](O)[C@@H](O)[C@H]2O)(C(=O)O)C[C@@H]1O [6′-sialyllactose]	significantly greater	stimulates the growth			
CC(=O)N[C@H]1[C@H]([C@H](O)[C@H](O)CO)O[C@@](O[C@H]2[C@@H](O)[C@@H](CO)O[C@@H](O[C@H]3[C@H](O)[C@@H](O)C(O)O[C@@H]3CO)[C@@H]2O)(C(=O)O)C[C@@H]1O (stereo partly drawn) [3′-sialyllactose]		stimulates the growth	significantly greater	significantly greater	stimulates the growth
